Results reported in patent US8476265B2, “Compounds-801” (AstraZeneca AB, priority 2010, dated 2013).
Counter-ions that a name gives are not always drawn.

Assays:
[1] = target: T1, human muscarinic acetylcholine M3 receptor (Homo sapiens, UniProt P20309); assay: Muscarinic 3 receptor binding assay ([3H]NMS competition, SPA), pIC50; conditions: [3H]NMS 0.1 nM, CHO-K1 cell membranes expressing human M3 receptor
T1 construct: expressed in transfected cells; host or cells: CHO-K1 (Chinese Hamster Ovary) cell membranes
How it was run: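 SPA beads precoated with human M3-expressing CHO-K1 membranes were incubated 16 h at room temperature with serially diluted compound and 0.1 nM [3H]NMS (pH 7.4 HEPES buffer, MgCl2, BSA, 1% DMSO). Atropine (1 μM) defined non-specific binding; pIC50 is the 50% reduction in specific binding.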

Adrenergic β2 = target: T2, Adrenergic β2 (Homo sapiens, UniProt P07550); assay: Adrenergic β2 mediated cAMP production in H292 cells (AlphaScreen), concentration response; format: cell-based; conditions: for EC50: 60 min, 300 μM rolipram, read-out: β2 pEC50 (converted); for β2 Intrinsic Activity: fraction relative to the maximum activity determined for formoterol
T2 construct: Adherent H292 cells are removed from tissue culture flasks by treatment with Accutase™ cell detachment solution; endogenous in cells; host or cells: H292 cells
How it was run: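 Intracellular cAMP in lysates read by AlphaScreen, calibrated with cAMP standards; curves fitted for pEC50, with intrinsic activity as a fraction of formoterol's maximum. Agonist exposure 60 min at room temperature after 10 min rolipram (300 μM final), 1% DMSO, HEPES-buffered HBSS pH 7.4.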

T1 sequence (P20309 whole entry): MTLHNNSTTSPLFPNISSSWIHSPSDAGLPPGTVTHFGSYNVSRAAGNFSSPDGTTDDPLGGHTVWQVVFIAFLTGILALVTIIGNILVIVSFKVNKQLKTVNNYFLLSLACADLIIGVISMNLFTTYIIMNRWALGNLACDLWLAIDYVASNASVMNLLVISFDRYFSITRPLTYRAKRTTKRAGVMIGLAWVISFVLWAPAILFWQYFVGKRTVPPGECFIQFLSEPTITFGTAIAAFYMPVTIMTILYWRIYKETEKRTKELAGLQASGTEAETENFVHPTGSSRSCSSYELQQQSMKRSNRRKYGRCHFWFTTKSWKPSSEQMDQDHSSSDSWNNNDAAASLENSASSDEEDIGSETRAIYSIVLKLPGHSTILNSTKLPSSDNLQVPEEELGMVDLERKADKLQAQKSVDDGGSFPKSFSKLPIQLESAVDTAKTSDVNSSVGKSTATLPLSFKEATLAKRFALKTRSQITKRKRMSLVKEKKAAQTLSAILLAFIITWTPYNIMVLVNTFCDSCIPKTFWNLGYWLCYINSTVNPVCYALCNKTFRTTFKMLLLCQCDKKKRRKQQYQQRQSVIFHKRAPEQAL
T2 sequence (P07550 whole entry): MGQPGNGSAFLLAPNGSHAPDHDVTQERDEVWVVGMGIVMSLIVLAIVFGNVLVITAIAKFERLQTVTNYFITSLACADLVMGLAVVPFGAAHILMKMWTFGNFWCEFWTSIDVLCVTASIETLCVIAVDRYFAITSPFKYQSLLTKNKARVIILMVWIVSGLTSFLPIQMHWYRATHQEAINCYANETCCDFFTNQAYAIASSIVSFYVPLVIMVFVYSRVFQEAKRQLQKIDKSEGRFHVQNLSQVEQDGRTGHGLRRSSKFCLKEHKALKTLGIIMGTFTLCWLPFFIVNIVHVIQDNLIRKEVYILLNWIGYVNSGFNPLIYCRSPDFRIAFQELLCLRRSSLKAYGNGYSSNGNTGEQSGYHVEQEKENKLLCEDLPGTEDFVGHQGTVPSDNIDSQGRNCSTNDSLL

SMILES	IC50 [1]	EC50 (Adrenergic β2)	β2 Intrinsic Activity (Adrenergic β2)
CC(C)c1nc(C(=O)N2CCOC3(CCN(Cc4cccc(CCOCCC(=O)N(CCNCCc5ccc(O)c6c5OCC(=O)N6)CCC(F)(F)F)c4F)CC3)C2)cs1 [Example 20, 3-(2-Fluoro-3-((4-(2-isopropylthiazole-4-carbonyl)-1-oxa-4,9-diazaspiro[5.5]undecan-9-yl)methyl)phenethoxy)-N-(2-(2-(5-hydroxy-3-oxo-3,4-dihydro-2H-benzo[b][1,4]oxazin-8-yl)ethylamino)ethyl)-N-(3,3,3-trifluoropropyl)propanamide ditrifluoroacetate]	0.2 nM	79.4 nM	1.1
CCN(CCNCCc1ccc(O)c2[nH]c(=O)sc12)C(=O)CCOCCc1ccc(OCCCN2CCC3(CC2)CN(C(=O)c2csc(C(C)C)n2)CCO3)cc1 [Example 62, N-Ethyl-N-(2-(2-(4-hydroxy-2-oxo-2,3-dihydrobenzo[d]thiazol-7-yl)ethylamino)ethyl)-3-(4-(3-(4-(2-isopropylthiazole-4-carbonyl)-1-oxa-4,9-diazaspiro[5.5]undecan-9-yl)propoxy)phenethoxy)propanamide ditrifluoroacetate]	0.794 nM	100 nM	0.7
O=C1COc2c(CCNCCN(C(=O)CCOCCc3cccc(CN4CCC5(CC4)CN(C(=O)c4ccc6sccc6c4)CCO5)c3)C3CCCCC3)ccc(O)c2N1 [Example 92, 3-(3-((4-(Benzo[b]thiophene-5-carbonyl)-1-oxa-4,9-diazaspiro[5.5]undecan-9-yl)methyl)phenethoxy)-N-cyclohexyl-N-(2-(2-(5-hydroxy-3-oxo-3,4-dihydro-2H-benzo[b][1,4]oxazin-8-yl)ethylamino)ethyl)propanamide]	1.26 nM	251 nM	1.1
CCN(CCNCCc1ccc(O)c2[nH]c(=O)sc12)C(=O)CCOCCc1cc(CN2CCC3(CC2)CN(C(=O)c2csc(C(C)C)n2)CCO3)ccc1F [Example 43, N-Ethyl-3-(2-fluoro-5-((4-(2-isopropylthiazole-4-carbonyl)-1-oxa-4,9-diazaspiro[5.5]undecan-9-yl)methyl)phenethoxy)-N-(2-(2-(4-hydroxy-2-oxo-2,3-dihydrobenzo[d]thiazol-7-yl)ethylamino)ethyl)propanamide ditrifluoroacetate]	1 nM	398 nM	0.9
Cc1nc(C(=O)N2CCOC3(CCN(CCc4ccc(CCOCCC(=O)N(CCNCCc5ccc(O)c6c5OCC(=O)N6)C5CCCCCC5)cc4)CC3)C2)cs1 [Example 5, N-Cycloheptyl-N-(2-(2-(5-hydroxy-3-oxo-3,4-dihydro-2H-benzo[b][1,4]oxazin-8-yl)ethylamino)ethyl)-3-(4-(2-(4-(2-methylthiazole-4-carbonyl)-1-oxa-4,9-diazaspiro[5.5]undecan-9-yl)ethyl)phenethoxy)propanamide ditrifluoroacetate]	0.2 nM	20 nM	0.9
CC(C)c1nc(C(=O)N2CCOC3(CCN(Cc4cccc(CCOCCC(=O)N(CCNCCc5ccc(O)c6c5OCC(=O)N6)C(C)C)c4F)CC3)C2)cs1 [Example 16, 3-(2-Fluoro-3-((4-(2-isopropylthiazole-4-carbonyl)-1-oxa-4,9-diazaspiro[5.5]undecan-9-yl)methyl)phenethoxy)-N-(2-(2-(5-hydroxy-3-oxo-3,4-dihydro-2H-benzo[b][1,4]oxazin-8-yl)ethylamino)ethyl)-N-isopropylpropanamide ditrifluoroacetate]	0.251 nM	200 nM	0.8
CC(C)c1nc(C(=O)N2CCOC3(CCN(Cc4cc(F)cc(CCOCCC(=O)N(CCNCCc5ccc(O)c6c5OCC(=O)N6)C5CCCCC5)c4)CC3)C2)cs1 [Example 47, N-Cyclohexyl-3-(3-fluoro-5-((4-(2-isopropylthiazole-4-carbonyl)-1-oxa-4,9-diazaspiro[5.5]undecan-9-yl)methyl)phenethoxy)-N-(2-(2-(5-hydroxy-3-oxo-3,4-dihydro-2H-benzo[b][1,4]oxazin-8-yl)ethylamino)ethyl)propanamide ditrifluoroacetate]	0.398 nM	63.1 nM	0.9
CC(C)CN(CCNCCc1ccc(O)c2c1OCC(=O)N2)C(=O)CCOCCc1cccc(CCN2CCC3(CC2)CN(C(=O)c2csc(C(C)C)n2)CCO3)c1 [Example 40, N-(2-(2-(5-Hydroxy-3-oxo-3,4-dihydro-2H-benzo[b][1,4]oxazin-8-yl)ethylamino)ethyl)-N-Isobutyl-3-(3-(2-(4-(2-isopropylthiazole-4-carbonyl)-1-oxa-4,9-diazaspiro[5.5]undecan-9-yl)ethyl)phenethoxy)propanamide ditrifluoroacetate]	1.26 nM	20 nM	1.0
CCCCN(CCNCCc1ccc(O)c2c1OCC(=O)N2)C(=O)CCOCCc1cccc(CCN2CCC3(CC2)CN(C(=O)c2csc(C(C)C)n2)CCO3)c1 [Example 34a, N-Butyl-N-(2-(2-(5-hydroxy-3-oxo-3,4-dihydro-2H-benzo[b][1,4]oxazin-8-yl)ethylamino)ethyl)-3-(3-(2-(4-(2-isopropylthiazole-4-carbonyl)-1-oxa-4,9-diazaspiro[5.5]undecan-9-yl)ethyl)phenethoxy)propanamide Sulphate salt Modification A]	0.631 nM	15.8 nM	–
Cc1ccc(CN(CCNCCc2ccc(O)c3c2OCC(=O)N3)C(=O)CCOCCc2cccc(CN3CCC4(CC3)CN(C(=O)c3csc(C(C)C)n3)CCO4)c2F)cc1 [Example 22, 3-(2-Fluoro-3-(4-(2-isopropylthiazole-4-carbonyl)-1-oxa-4,9-diazaspiro[5.5]undecan-9-yl)methyl)phenethoxy)-N-(2-(2-(5-hydroxy-3-oxo-3,4-dihydro-2H-benzo[b][1,4]oxazin-8-yl)ethylamino)ethyl)-N-(4-methylbenzyl)propanamide ditrifluoroacetate]	0.251 nM	79.4 nM	1.2
CC(C)c1cccc(C(=O)N2CCOC3(CCN(Cc4cccc(CCOCCC(=O)N(CCNCCc5ccc(O)c6c5OCC(=O)N6)C5CCCCC5)c4)CC3)C2)n1 [Example 97, N-Cyclohexyl-N-(2-(2-(5-hydroxy-3-oxo-3,4-dihydro-2H-benzo[b][1,4]oxazin-8-yl)ethylamino)ethyl)-3-(3-((4-(6-isopropylpicolinoyl)-1-oxa-4,9-diazaspiro[5.5]undecan-9-yl)methyl)phenethoxy)propanamide]	1.26 nM	158 nM	1.0
Cc1cc(C(=O)N2CCOC3(CCN(Cc4cccc(CCOCCC(=O)N(CCNCCc5ccc(O)c6c5OCC(=O)N6)C5CCCCC5)c4)CC3)C2)sc1C [Example 89, N-Cyclohexyl-3-(3-((4-(4,5-dimethylthiophene-2-carbonyl)-1-oxa-4,9-diazaspiro[5.5]undecan-9-yl)methyl)phenethoxy)-N-(2-(2-(5-hydroxy-3-oxo-3,4-dihydro-2H-benzo[b][1,4]oxazin-8-yl)ethylamino)ethyl)propanamide]	5.01 nM	200 nM	1.0
CCCCN(CCNCCc1ccc(O)c2c1OCC(=O)N2)C(=O)CCOCCc1ccccc1OCCN1CCC2(CC1)CN(C(=O)c1csc(C(C)C)n1)CCO2 [Example 178, N-butyl-N-(2-(2-(5-hydroxy-3-oxo-3,4-dihydro-2H-benzo[b][1,4]oxazin-8-yl)ethylamino)ethyl)-3-(2-(2-(4-(2-isopropylthiazole-4-carbonyl)-1-oxa-4,9-diazaspiro[5.5]undecan-9-yl)ethoxy)phenethoxy)propanamide trifluoroacetate salt]	12.6 nM	501 nM	1.2
CCCc1cc(C(=O)N2CCOC3(CCN(Cc4cccc(CCOCCC(=O)N(CCNCCc5ccc(O)c6c5OCC(=O)N6)C5CCCCC5)c4)CC3)C2)cs1 [Example 93, N-Cyclohexyl-N-(2-(2-(5-hydroxy-3-oxo-3,4-dihydro-2H-benzo[b][1,4]oxazin-8-yl)ethylamino)ethyl)-3-(3-((4-(5-propylthiophene-3-carbonyl)-1-oxa-4,9-diazaspiro[5.5]undecan-9-yl)methyl)phenethoxy)propanamide]	0.2 nM	251 nM	1.1
CC(C)c1nc(C(=O)N2CCOC3(CN(CCc4cccc(CCOCCC(=O)N(CCNCCc5ccc(O)c6c5OCC(=O)N6)C5CCCCC5)c4)C3)C2)cs1 [Example 176, N-Cyclohexyl-N-(2-(2-(5-hydroxy-3-oxo-3,4-dihydro-2H-benzo[b][1,4]oxazin-8-yl)ethylamino)ethyl)-3-(3-(2-(8-(2-isopropylthiazole-4-carbonyl)-5-oxa-2,8-diazaspiro[3.5]nonan-2-yl)ethyl)phenethoxy)propanamide, trifluoroacetate salt]	2.51 nM	15.8 nM	1.2
CCc1nc(C(=O)N2CCOC3(CCN(Cc4cccc(CCOCCC(=O)N(CCNCCc5ccc(O)c6c5OCC(=O)N6)[C@H](C)CC)c4Cl)CC3)C2)cs1 [Example 31, (R)—N-sec-Butyl-3-(2-chloro-3-((4-(2-ethylthiazole-4-carbonyl)-1-oxa-4,9-diazaspiro[5.5]undecan-9-yl)methyl)phenethoxy)-N-(2-(2-(5-hydroxy-3-oxo-3,4-dihydro-2H-benzo[b][1,4]oxazin-8-yl)ethylamino)ethyl)propanamide ditrifluoroacetate]	0.398 nM	20 nM	1.0
